ChEMBL document CHEMBL4130448, “Novel SERMs based on 3-aryl-4-aryloxy-2H-chromen-2-one skeleton - A possible way to dual ERα/VEGFR-2 ligands for treatment of breast cancer” (Eur J Med Chem, 2017)
The source made the active and inactive calls. The calls are words filed in the database; no cut-off is given here.

Key:
MCF7 [1] = assay: cells; details: Homo sapiens, MCF7, 48 h
Description: Cytotoxicity in human MCF7 cells assessed as inhibition of cell growth incubated for 48 hrs by MTT assay

[2] = target: Vascular endothelial growth factor receptor 2 (Homo sapiens) (UniProt P35968); assay: Inhibition of His-tagged human VEGFR2 at 40 uM incubated for 1 hr by HTRF assay
Sequence of Vascular endothelial growth factor receptor 2 (Homo sapiens) (P35968 whole entry): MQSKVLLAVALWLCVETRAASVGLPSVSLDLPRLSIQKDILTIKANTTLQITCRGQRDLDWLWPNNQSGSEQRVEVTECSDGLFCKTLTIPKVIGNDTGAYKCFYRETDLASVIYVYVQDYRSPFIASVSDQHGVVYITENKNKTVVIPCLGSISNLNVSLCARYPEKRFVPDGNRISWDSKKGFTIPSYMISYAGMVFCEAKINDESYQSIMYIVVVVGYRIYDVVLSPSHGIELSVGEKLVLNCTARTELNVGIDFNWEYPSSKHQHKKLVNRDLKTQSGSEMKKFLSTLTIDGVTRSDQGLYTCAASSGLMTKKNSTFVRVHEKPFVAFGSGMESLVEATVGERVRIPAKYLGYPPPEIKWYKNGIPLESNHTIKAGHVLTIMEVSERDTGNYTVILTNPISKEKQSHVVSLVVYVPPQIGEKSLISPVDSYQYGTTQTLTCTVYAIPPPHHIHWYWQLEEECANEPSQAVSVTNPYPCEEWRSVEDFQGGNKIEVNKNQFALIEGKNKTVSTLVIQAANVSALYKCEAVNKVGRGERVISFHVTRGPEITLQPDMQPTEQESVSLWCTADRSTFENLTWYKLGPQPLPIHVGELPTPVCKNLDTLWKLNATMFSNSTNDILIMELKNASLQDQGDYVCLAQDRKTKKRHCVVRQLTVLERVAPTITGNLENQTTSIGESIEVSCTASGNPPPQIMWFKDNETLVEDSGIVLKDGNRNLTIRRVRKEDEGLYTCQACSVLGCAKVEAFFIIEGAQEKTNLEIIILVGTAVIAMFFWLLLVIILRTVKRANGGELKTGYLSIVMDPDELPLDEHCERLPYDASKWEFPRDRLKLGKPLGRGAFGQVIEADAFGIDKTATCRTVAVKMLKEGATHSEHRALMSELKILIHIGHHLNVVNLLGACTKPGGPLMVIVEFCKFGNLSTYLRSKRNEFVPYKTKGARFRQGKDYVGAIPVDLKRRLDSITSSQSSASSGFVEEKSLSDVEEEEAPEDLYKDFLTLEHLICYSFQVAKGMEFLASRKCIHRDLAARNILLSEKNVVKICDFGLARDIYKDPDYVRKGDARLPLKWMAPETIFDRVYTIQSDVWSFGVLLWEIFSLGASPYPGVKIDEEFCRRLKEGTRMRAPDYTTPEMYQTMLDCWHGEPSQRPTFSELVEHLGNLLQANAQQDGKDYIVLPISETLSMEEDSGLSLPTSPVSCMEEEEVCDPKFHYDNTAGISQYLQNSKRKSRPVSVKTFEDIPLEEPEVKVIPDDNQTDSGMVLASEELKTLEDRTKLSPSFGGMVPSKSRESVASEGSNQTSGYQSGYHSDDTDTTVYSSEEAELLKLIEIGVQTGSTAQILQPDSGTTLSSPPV

Ishikawa = assay: cells; details: Homo sapiens, 48 h
Description: Cytotoxicity in human Ishikawa cells assessed as inhibition of cell growth incubated for 48 hrs by MTT assay

HUVEC = assay: Antiangiogenic activity against HUVEC incubated for 48 hrs by MTT assay; assay type: functional, cell-based; details: Homo sapiens
Estrogen receptor = target: T1, Estrogen receptor (Homo sapiens, UniProt P03372); assay: Displacement of fluorescent estrogen ligand from recombinant human ERalpha expressed in insect cells incubated for 2 hrs by polarization
T1 sequence (P03372 whole entry): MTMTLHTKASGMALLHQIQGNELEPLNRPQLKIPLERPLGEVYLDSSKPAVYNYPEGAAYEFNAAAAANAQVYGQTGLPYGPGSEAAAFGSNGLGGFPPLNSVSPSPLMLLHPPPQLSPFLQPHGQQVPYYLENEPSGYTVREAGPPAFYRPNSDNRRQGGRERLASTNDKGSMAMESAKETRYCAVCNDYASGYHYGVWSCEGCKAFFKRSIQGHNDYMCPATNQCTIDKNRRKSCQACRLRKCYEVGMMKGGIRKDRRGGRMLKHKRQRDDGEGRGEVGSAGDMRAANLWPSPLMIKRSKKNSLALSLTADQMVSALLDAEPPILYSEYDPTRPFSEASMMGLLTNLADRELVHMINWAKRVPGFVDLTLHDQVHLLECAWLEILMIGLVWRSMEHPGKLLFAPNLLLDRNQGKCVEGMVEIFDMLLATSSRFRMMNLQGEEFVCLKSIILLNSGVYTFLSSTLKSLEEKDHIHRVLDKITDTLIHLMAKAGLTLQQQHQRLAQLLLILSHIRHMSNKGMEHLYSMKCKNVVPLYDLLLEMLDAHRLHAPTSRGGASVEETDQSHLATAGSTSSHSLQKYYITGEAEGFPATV

MCF7 [3] = assay: Induction of cell cycle arrest in human MCF7 cells assessed as accumulation at G0/G1 phase at 4 uM incubated for 24 hrs by propidium iodide staining flow cytometry (reference value: 48.52%); assay type: functional
MCF7 [4] = assay: Induction of cell cycle arrest in human MCF7 cells assessed as reduction in accumulation at G2/M phase incubated for 24 hrs by propidium iodide staining flow cytometry; assay type: functional, cell-based
[5] = target: Vascular endothelial growth factor receptor 2 (Homo sapiens) (UniProt P35968); assay: Inhibition of VEGFR2 phosphorylation in human MCF7 cells at 2 uM incubated for 24 hrs by Western blot method relative to sunitinib; assay type: cell-based
MCF7 [6] = assay: Induction of cell cycle arrest in human MCF7 cells assessed as accumulation at G2/M phase at 2 uM incubated for 24 hrs by propidium iodide staining flow cytometry (reference value: 26.84%); assay type: functional
MCF7 [7] = assay: Induction of cell cycle arrest in human MCF7 cells assessed as accumulation at G0/G1 phase at 6 uM incubated for 24 hrs by propidium iodide staining flow cytometry (reference value: 48.52%); assay type: functional
MCF7 [8] = assay: Induction of cell cycle arrest in human MCF7 cells assessed as accumulation at G0/G1 phase incubated for 24 hrs by propidium iodide staining flow cytometry; assay type: functional, cell-based
MCF7 [9] = assay: Effect on total Raf1 protein level in human MCF7 cells at 2 to 4 uM incubated for 24 hrs by Western blot method; assay type: ADME, cell-based; details: mcf7, 24 h
MCF7 [10] = assay: Induction of cell cycle arrest in human MCF7 cells assessed as accumulation at S phase at 4 uM incubated for 24 hrs by propidium iodide staining flow cytometry (reference value: 24.64%); assay type: functional
[11] = target: Vascular endothelial growth factor receptor 2 (Homo sapiens) (UniProt P35968); assay: Inhibition of VEGFR2 in human MCF7 cells assessed as reduction in p-Raf1 protein level incubated for 24 hrs by Western blot method; assay type: cell-based
MCF7 [12] = assay: Induction of cell cycle arrest in human MCF7 cells assessed as accumulation at G2/M phase at 4 uM incubated for 24 hrs by propidium iodide staining flow cytometry (reference value: 26.84%); assay type: functional
[13] = target: Vascular endothelial growth factor receptor 2 (Homo sapiens) (UniProt P35968); assay: Inhibition of VEGFR2 in human MCF7 cells assessed as reduction in p-ERK1/2 protein level incubated for 24 hrs by Western blot method; assay type: cell-based
MCF7 [14] = assay: Induction of cell cycle arrest in human MCF7 cells assessed as accumulation at S phase at 6 uM incubated for 24 hrs by propidium iodide staining flow cytometry (reference value: 24.64%); assay type: functional
MCF7 [15] = assay: Induction of cell cycle arrest in human MCF7 cells assessed as accumulation at G2/M phase at 6 uM incubated for 24 hrs by propidium iodide staining flow cytometry (reference value: 26.84%); assay type: functional
MCF7 [16] = assay: Induction of cell cycle arrest in human MCF7 cells assessed as accumulation at G0/G1 phase at 2 uM incubated for 24 hrs by propidium iodide staining flow cytometry (reference value: 48.52%); assay type: functional
[17] = target: Vascular endothelial growth factor receptor 2 (Homo sapiens) (UniProt P35968); assay: Inhibition of VEGFR2 phosphorylation in human MCF7 cells incubated for 24 hrs by Western blot method; assay type: cell-based
MCF7 [18] = assay: Effect on total ERK1/2 protein level in human MCF7 cells at 2 to 4 uM incubated for 24 hrs by Western blot method; assay type: ADME, cell-based; details: mcf7, 24 h
MCF7 [19] = assay: Induction of cell cycle arrest in human MCF7 cells assessed as accumulation at S phase at 2 uM incubated for 24 hrs by propidium iodide staining flow cytometry (reference value: 24.64%); assay type: functional
MCF7 [20] = assay: Induction of cell cycle arrest in human MCF7 cells assessed as reduction in accumulation at S phase incubated for 24 hrs by propidium iodide staining flow cytometry; assay type: functional, cell-based

| Compound | IC50 (MCF7 [1]) [µM] | IC50 (Ishikawa) [µM] | IC50 (Estrogen receptor) [µM] | further results |
| --- | --- | --- | --- | --- |
| O=c1oc2cc(O)ccc2c(Oc2ccc(OCCN3CCCCC3)cc2)c1-c1ccc(O)cc1 | 19.7 | 28.4 | 2.62 | inhibition [2]: 66.1%; IC50 (HUVEC): 23.9 µM |
| CN(C)CCOc1ccc(Nc2c(-c3ccc(F)cc3)c(=O)oc3ccccc23)cc1 | 32.5 | 28.5 | > 10 |  |
| O=c1oc2cc(O)ccc2c(Oc2ccc(OCCN3CCCC3)cc2)c1-c1ccc(O)cc1 | 23.9 | 24.5 | 6.84 |  |
| CN(C)CCOc1ccc(Nc2c(-c3ccc(O)cc3)c(=O)oc3cc(O)ccc23)cc1 | 28.4 | 30.2 | 8.21 |  |
| CCN(CC)CCOc1ccc(Oc2c(-c3ccc(F)cc3)c(=O)oc3cc(O)ccc23)cc1 | 21.3 | 17.4 | 3.55 |  |
| CCN(CC)CCOc1ccc(Nc2c(-c3ccc(F)cc3)c(=O)oc3cc(OC)ccc23)cc1 | 26.3 | 17.9 | > 10 |  |
| O=c1oc2cc(O)ccc2c(Nc2ccc(OCCN3CCCC3)cc2)c1-c1ccc(O)cc1 | 20.7 | 26.7 | 6.43 |  |
| O=c1oc2cc(O)ccc2c(Oc2ccc(OCCN3CCCC3)cc2)c1-c1ccc(F)cc1 | 16.8 | 22.6 | 4.27 |  |

Continued, in another order:

| IC50 (MCF7 [1]) [µM] | IC50 (Ishikawa) [µM] | IC50 (Estrogen receptor) [µM] | Compound | further results |
| --- | --- | --- | --- | --- |
| 11.4 | 14.4 | 6.64 | COc1ccc(-c2c(Nc3ccc(OCCN4CCCCC4)cc3)c3ccc(O)cc3oc2=O)cc1 | inhibition [2]: 59.3%; IC50 (HUVEC): 16.2 µM |
| 14.3 | 20.7 |  | CC/C(=C(\c1ccccc1)c1ccc(OCCN(C)C)cc1)c1ccccc1 [TAMOXIFEN] |  |
| 14.6 | 15.1 | > 10 | COc1ccc2c(Oc3ccc(OCCN4CCCC4)cc3)c(-c3ccc(F)cc3)c(=O)oc2c1 |  |
| 9.54 | 11.1 | 2.19 | O=c1oc2cc(O)ccc2c(Oc2ccc(OCCN3CCCCC3)cc2)c1-c1ccc(F)cc1 | Activity (MCF7 [3]): 65.37%; Activity (MCF7 [4]): Dose-dependent effect; inhibition [5]: Active; Activity (MCF7 [6]): 20.81%; Activity (MCF7 [7]): 75.46%; inhibition [2]: 82.9%; Activity (MCF7 [8]): Dose-dependent effect; Activity (MCF7 [9]): Non-Toxic; Activity (MCF7 [10]): 18.41%; inhibition [11]: Dose-dependent effect; Activity (MCF7 [12]): 16.22%; IC50 (HUVEC): 15.7 µM; inhibition [13]: Dose-dependent effect; Activity (MCF7 [14]): 14.69%; Activity (MCF7 [15]): 9.85%; Activity (MCF7 [16]): 60.67%; inhibition [17]: Dose-dependent effect; Activity (MCF7 [18]): Non-Toxic; Activity (MCF7 [19]): 18.52%; Activity (MCF7 [20]): Dose-dependent effect |
| 9.62 | 7.47 | 9.42 | COc1ccc(-c2c(Oc3ccc(OCCN4CCCCC4)cc3)c3ccc(OC)cc3oc2=O)cc1 | inhibition [2]: 67.6%; IC50 (HUVEC): 7.64 µM |
| 11.3 | 10.3 | 7.79 | O=c1oc2ccccc2c(Nc2ccc(OCCN3CCCCC3)cc2)c1-c1ccc(F)cc1 | inhibition [2]: 41.8%; IC50 (HUVEC): 17.2 µM |
| 15.3 | 9.32 | > 10 | CCN(CC)CCOc1ccc(Oc2c(-c3ccc(OC)cc3)c(=O)oc3cc(OC)ccc23)cc1 |  |
| 13.9 | 21.5 | 4.53 | O=c1oc2cc(O)ccc2c(Nc2ccc(OCCN3CCCC3)cc2)c1-c1ccc(F)cc1 |  |
| 16.6 | 18.7 | 6.43 | CN(C)CCOc1ccc(Oc2c(-c3ccc(F)cc3)c(=O)oc3cc(O)ccc23)cc1 |  |
